Here are results for one substance from US9744188B2, “Methods of promoting neuronal outgrowth by gypican 2 that binds to receptor protein tyrosine phosphatase sigma” (PRESIDENT AND FELLOWS OF HARVARD COLLEGE, priority 2011, dated 2017).

The assay addresses T1, DLAR Ig1-FN3 (Drosophila melanogaster, UniProt P16621).
T1 construct: hexahistidine (C); made in house; host or cells: HEK-293T cells with kifunensine or GnTI- HEK293S cells
T1 sequence (P16621 33-606): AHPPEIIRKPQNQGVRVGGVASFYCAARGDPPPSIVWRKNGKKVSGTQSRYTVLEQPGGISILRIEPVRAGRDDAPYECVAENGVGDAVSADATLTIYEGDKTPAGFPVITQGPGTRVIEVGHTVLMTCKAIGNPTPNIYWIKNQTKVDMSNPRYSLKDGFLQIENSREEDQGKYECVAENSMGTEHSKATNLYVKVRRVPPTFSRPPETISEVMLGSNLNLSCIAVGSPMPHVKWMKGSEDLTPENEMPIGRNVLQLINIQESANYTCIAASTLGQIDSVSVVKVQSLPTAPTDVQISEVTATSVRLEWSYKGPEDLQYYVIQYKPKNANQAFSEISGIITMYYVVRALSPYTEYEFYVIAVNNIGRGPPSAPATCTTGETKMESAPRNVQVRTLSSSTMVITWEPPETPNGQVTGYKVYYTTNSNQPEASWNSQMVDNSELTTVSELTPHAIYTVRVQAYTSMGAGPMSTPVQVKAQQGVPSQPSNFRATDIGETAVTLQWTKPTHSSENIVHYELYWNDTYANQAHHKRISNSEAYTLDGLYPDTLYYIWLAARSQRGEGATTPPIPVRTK
Briefly: SEC-MALS, heparin-induced oligomerisation of DLAR. In kind it is biochemical. Here is the method: MALS experiments were carried out on a […] System (Wyatt Technologies). All proteins were purified as described above, and samples were incubated alone or with an oligosaccharide ligand for an hour at room temperature prior to use in MALS analysis. For size defined heparin fragments (Iduron dp4-dp30; product codes HO04-HO30) a five-fold molar excess of oligosaccharide to protein was used, except for the series of experiments presented in FIG. 13, where a range of RPTPσ constructs were tested with a separate batch of dp10 at a two-fold molar excess (FIG. 37, highlighted in blue). Equivalent amounts (equal mg/ml concentrations) of HS (Iduron, GAG-HS01) and CS (Sigma, C4384) were used for MALS experiments as had been for heparin dp10 (in giving a five-fold molar excess). […] All Ig1-FN3 proteins were injected at approximately 10 μM. Size exclusion chromatography was performed in 10 mM Tris, 50 mM NaCl, pH 7.5 on a Superdex75 or Superdex200 HR10/30 column (GE Healthcare), attached to an Agilent chromatography system. An Optilab rEX Refractive Index detector and a Dawn Helios II Multi-Angle Light Scattering (MALS) detector recorded the refractive index and light scattering of the samples upon elution from the size exclusion column. The Wyatt software ASTRA was used to analyse all the data collected.

On to Heparin, for which the “oligomerisation of DLAR Ig1-FN3” value is “promotes the oligomerisation”.
